ChEMBL document CHEMBL1142761, “SAR studies of 6-aryl-1,3-dihydrobenzimidazol-2-ones as progesterone receptor antagonists” (Bioorg Med Chem Lett, 2005)

These molecules were tested against T1, Progesterone receptor (Homo sapiens, UniProt P06401) (assay: Progesterone receptor antagonist activity in human T47D breast carcinoma cell alkaline phosphatase assay).
T1 sequence (P06401 whole entry): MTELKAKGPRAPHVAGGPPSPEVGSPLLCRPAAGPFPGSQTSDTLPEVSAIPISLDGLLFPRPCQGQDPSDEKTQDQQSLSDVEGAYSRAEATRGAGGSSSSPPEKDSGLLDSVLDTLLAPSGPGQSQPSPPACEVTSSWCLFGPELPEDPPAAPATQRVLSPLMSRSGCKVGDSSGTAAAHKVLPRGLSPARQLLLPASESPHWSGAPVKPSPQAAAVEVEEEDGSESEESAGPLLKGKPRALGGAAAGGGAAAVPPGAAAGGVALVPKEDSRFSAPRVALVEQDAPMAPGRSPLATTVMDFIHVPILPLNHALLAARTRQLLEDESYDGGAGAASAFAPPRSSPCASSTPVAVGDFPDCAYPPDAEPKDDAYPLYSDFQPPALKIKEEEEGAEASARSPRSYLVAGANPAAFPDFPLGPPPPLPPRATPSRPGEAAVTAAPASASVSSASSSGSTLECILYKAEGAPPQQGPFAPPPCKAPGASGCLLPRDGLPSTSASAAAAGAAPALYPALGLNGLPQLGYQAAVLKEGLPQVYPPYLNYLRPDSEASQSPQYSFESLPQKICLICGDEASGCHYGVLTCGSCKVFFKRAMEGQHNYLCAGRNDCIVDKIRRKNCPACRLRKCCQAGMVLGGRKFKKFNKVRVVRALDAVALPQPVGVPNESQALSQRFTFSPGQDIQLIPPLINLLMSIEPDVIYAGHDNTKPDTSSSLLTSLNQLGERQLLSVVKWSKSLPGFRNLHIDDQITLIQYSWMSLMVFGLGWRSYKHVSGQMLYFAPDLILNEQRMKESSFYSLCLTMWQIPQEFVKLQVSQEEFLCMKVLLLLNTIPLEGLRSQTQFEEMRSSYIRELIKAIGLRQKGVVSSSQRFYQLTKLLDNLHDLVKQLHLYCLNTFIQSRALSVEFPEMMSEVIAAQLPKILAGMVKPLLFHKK

Row | IC50 | SMILES
1 | 5.7 nM | N#Cc1cc(F)cc(-c2ccc3[nH]c(=O)n(C4CCCC4)c3c2)c1
2 | 60.3 nM | CC(C)n1c(O)nc2ccc(-c3ccc(F)c(C#N)c3)cc21
3 | 175 nM | O=c1[nH]c2ccc(-c3ccc(F)c(F)c3)cc2n1C1CCC1
4 | 4.7 nM | CC(C)n1c(O)nc2ccc(-c3ccc(C#N)n3C)cc21
5 | 106 nM | CC(C)n1c(=O)[nH]c2ccc(-c3ccc(F)c(Cl)c3)cc21
6 | 5.6 nM | Cn1c(C#N)ccc1-c1ccc2[nH]c(=O)n(C3CCCC3)c2c1
7 | 412 nM | CC(C)n1c(O)nc2ccc(-c3ccccc3F)cc21
8 | 96.8 nM | O=c1[nH]c2ccc(-c3ccc(F)c(F)c3)cc2n1C1CCCC1
9 | 295 nM | CC(C)n1c(O)nc2ccc(-c3ccc(F)cc3)cc21
10 | 3000 nM | N#Cc1cc(F)cc(-c2ccc3[nH]c(=O)n(-c4cccc(Cl)c4)c3c2)c1
11 | 77.9 nM | CC(C)n1c(=O)[nH]c2ccc(-c3cccc(F)c3)cc21
12 | 83.6 nM | N#Cc1cc(F)cc(-c2ccc3[nH]c(=O)n(C4CCCCC4)c3c2)c1
13 | 207 nM | CC(C)n1c(O)nc2ccc(-c3ccc(F)c(F)c3)cc21
14 | 3.3 nM | N#Cc1cc(F)cc(-c2ccc3[nH]c(=O)n(C4CCC4)c3c2)c1
15 | 100 nM | CC(C)n1c(=O)[nH]c2ccc(-c3cc(Cl)cc(Cl)c3)cc21
16 | 24.8 nM | Cc1cc(C#N)sc1-c1ccc2nc(O)n(C(C)C)c2c1
17 | 135 nM | Oc1nc2ccc(-c3ccc(F)c(Cl)c3)cc2n1C1CCCC1
18 | 29.6 nM | CC(C)n1c(O)nc2ccc(-c3cc(F)cc(C#N)c3)cc21
19 | 137 nM | N#Cc1cc(F)cc(-c2ccc3[nH]c(=O)n(-c4ccccc4)c3c2)c1
20 | 10.9 nM | Cn1c(C#N)ccc1-c1ccc2[nH]c(=O)n(C3CCC3)c2c1
21 | 106 nM | Oc1nc2ccc(-c3ccc(F)c(Cl)c3)cc2n1C1CCC1

Each molecule was assayed against T1, Progesterone receptor (assay: Progesterone receptor agonist activity in human T47D breast carcinoma cell alkaline phosphatase assay).
Type: functional, cell-based

Row | IC50 | SMILES
22 | 29 nM | CCC(CC)n1c(=O)[nH]c2ccc(-c3cc(F)cc(C#N)c3)cc21
23 | 426 nM | CCC(CC)n1c(=O)[nH]c2ccc(-c3ccc(F)c(Cl)c3)cc21
24 | 11.7 nM | CCC(CC)n1c(=O)[nH]c2ccc(-c3ccc(C#N)n3C)cc21
